# Test results from article PMC11091967, “Silicon-Rhodamine Functionalized Evocalcet Probes Potently and Selectively Label Calcium Sensing Receptors In Vitro, In Vivo, and Ex Vivo” (ACS Pharmacology & Translational Science, 2024).
# Tests used:
# HCAR cells = assay: Calcein AM viability assay, HCAR cells, 72 h; type: cell-based, hamster; settings: for IC50: Cricetulus griseus
# Description: The effects of EvoSiR probes and evocalcet on the viability of CCL39 and HCAR cells were evaluated using the Calcein AM assay as described by the manufacturer’s protocol (AAT Bioquest, 22002) with a working concentration of 10 μM. For the assay, cells were incubated in various concentrations of the compounds for 72 h. For positive controls, cells were incubated in culture media containing maximum 10% DMSO in a two-step dilution series for 72 h. Upon incubation in the Calcein AM solution for 1 h at 37 °C, the fluorescence readouts were retrieved using the Tecan GENios pro microplate reader (λex = 485 nm, λem = 535 nm, gain = 25 AU)
# [1] = Photophysical characterization; type: physicochemical; design: λex / λem: unit not given here; settings: for quantum yield Φ: 94% ethanol, 750 nM, relative to Rhodamine B; for λem / λex: Table 1; for extinction coefficient ε: absorbance at 150–1350 nM, 1 cm cuvette
# human CaSR = biological target: T1, human CaSR (Homo sapiens, UniProt P41180); assay: CaSR binding affinity estimated from differential fluorescence between HCAR (CaSR+) and CCL39 (CaSR-) cells
# T1 construct: host or cells: CCL39 hamster lung fibroblasts stably transfected (HCAR), Geneticin selection
# T1 sequence (P41180 20-1078): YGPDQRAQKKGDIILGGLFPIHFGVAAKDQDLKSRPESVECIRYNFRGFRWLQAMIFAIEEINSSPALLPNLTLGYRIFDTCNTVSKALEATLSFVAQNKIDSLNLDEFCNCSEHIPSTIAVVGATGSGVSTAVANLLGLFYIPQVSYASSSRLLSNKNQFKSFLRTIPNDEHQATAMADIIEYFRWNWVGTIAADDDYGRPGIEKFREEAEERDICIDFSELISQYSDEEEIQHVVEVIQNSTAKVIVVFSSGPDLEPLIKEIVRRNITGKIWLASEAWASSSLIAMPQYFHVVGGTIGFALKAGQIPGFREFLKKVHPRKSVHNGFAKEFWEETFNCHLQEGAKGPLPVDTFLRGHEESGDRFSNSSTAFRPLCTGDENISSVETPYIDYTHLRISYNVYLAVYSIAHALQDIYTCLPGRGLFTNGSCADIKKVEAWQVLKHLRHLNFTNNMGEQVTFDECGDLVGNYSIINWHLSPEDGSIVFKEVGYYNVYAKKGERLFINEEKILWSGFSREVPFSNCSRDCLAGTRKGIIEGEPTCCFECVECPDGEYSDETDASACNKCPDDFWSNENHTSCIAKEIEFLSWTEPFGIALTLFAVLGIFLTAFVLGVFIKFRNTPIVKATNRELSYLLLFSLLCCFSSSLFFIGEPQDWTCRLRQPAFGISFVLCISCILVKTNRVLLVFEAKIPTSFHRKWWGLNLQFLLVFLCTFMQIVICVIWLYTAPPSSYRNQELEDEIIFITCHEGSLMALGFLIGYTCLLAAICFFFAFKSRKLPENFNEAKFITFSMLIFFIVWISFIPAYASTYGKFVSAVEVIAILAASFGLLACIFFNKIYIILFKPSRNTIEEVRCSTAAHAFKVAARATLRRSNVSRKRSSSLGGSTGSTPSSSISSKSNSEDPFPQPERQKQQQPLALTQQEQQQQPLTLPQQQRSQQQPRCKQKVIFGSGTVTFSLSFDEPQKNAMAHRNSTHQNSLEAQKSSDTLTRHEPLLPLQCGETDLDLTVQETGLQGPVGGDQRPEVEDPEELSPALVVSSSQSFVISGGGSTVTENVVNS
# Description: Hamster lung fibroblasts (CCL39, CaSR−) expressing the recombinant human CaSR (HCAR, CaSR+) and nontransected controls were kindly provided by Novartis AG and were kept in standard culturing conditions (37 °C, 5% CO2) in 1/2 DMEM (Roth, 9005.1)—1/2 F-12 (Sigma, N4888–500 mL) media containing 10% FBS. Media for the HCAR cells contained 500 μg/mL Geneticin as a selection antibiotic (Thermo Fisher, 10131035). Upon reaching 90–95% confluence, cells were detached and seeded into 96-well plates (PerkinElmer, 6005182) at a concentration of 35,000 cells per well and were incubated for 24 h before the experiment. For the functional CaSR calcium assay, cells were first washed twice with HBSS medium (Sigma, H6648), and were incubated in HBSS containing 5 μM Fluo-8 AM and 0.1 mM CaCl2 for 30 min at 37 °C. Calcium transients were measured upon addition of 0.5 mM CaCl2 with the FLIPR Tetra high-throughput cellular screening systems using the 470–495 nm LED excitation and 515–575 nm bandpass emission filters. Probe solutions contained 0.5% DMSO and were added to the cells 10 min prior to the measurement. dF/F0 values were calculated as a change in the peak fluorescence value of the transient for the first 200 data points normalized to the background fluorescence of the well. […] Both cells were washed with HBSS medium twice and then incubated for 10 min at 37 °C in HBSS medium containing 0.1% BSA in the presence or absence of 10 μM evocalcet. Upon the removal of media, cells were incubated in various concentrations of EvoSiR4 and EvoSiR6 in HBSS containing 0.1% BSA for 30 min at 37 °C and were subsequently washed 3 times with 0.1% BSA and resuspended in DMSO before the fluorometric measurement. The fluorescence was measured using a Tecan GENios pro microplate reader with the following parameters: λex = 612 nm, λem = 670 nm, gain = 50 AU. Data for the EvoSiR probes and the evocalcet competition is reported as CaSR-specific fluorescence, which was calculated by dividing the absolute fluorescence of the HCAR cells with the absolute fluorescence of the CCL39 cells for each concentration.
# [2] = system: human parathyroid adenomas; assay: Ex vivo labeling of surgically resected human parathyroid adenomas
# Description: The part of the study involving human tissues has been registered at clinicaltirals.gov and can be retrieved under the ID: NCT03831620. The study was approved by the ethics commission of canton Bern, Switzerland (KEKBE 2018–02218). Written informed consent was obtained from all patients. Human parathyroid tissues were surgically resected and were immediately put on dry ice and stored at −80 °C. The tissues were thawed at 4 °C and were washed with PBS thoroughly. The labeling of the tissues was achieved using 500 nM EvoSiR4 for 30 min in PBS containing 0.1% BSA. After labeling, the tissues were washed twice with PBS containing 0.1% BSA. For evocalcet competition experiments, the tissues were coincubated with EvoSiR4 and evocalcet in a 1:5 molar ratio for 30 min and then washed twice with PBS containing 0.1% BSA. The images were acquired using an IVIS Spectrum in vivo imaging system with a λex of 780 nm and λem of 840 nm for the autofluorescence (ICG channel) and with a λex of 650 nm and λem of 670 nm for the EvoSiR label (Cy5 channel).
Compound,effect on viability at 50 μM (HCAR cells),IC50 (HCAR cells) [µM],fluorescence lifetime τ [1] [ns],quantum yield Φ [1],λem [1],λex [1],extinction coefficient ε [1],Kd (human CaSR) [µM],concentration above which marked increase in tissue fluorescence ([2]; 650 nm excitation) [nM],concentration below which no effect on viability (HCAR cells) [µM],effect of preincubation on CaSR-specific increase in relative fluorescence of EvoSiR probes (human CaSR; 10 μM evocalcet preincubation),decrease in tissue fluorescence upon evocalcet competition ([2]; 500 nM EvoSiR4 co-administered with 2.5 μM evocalcet) [%]
Cc1cc(C(=O)NCCCCNC(=O)Cc2ccc(N3CC[C@H](N[C@H](C)c4cccc5ccccc45)C3)cc2)ccc1C1=C2C=CC(=[N+](C)C)C=C2[Si](C)(C)c2cc(N(C)C)ccc21 [EvoSiR4],significantly reduced,27.3 ± 2.3,2.43 ± 0.164,0.288,670,650,"14,175 M^–1 cm^–1",0.0536 ± 0.0184,> 500,–,–,–
Cc1cc(C(=O)NCCCCCCNC(=O)Cc2ccc(N3CC[C@H](N[C@H](C)c4cccc5ccccc45)C3)cc2)ccc1C1=C2C=CC(=[N+](C)C)C=C2[Si](C)(C)c2cc(N(C)C)ccc21 [EvoSiR6],significantly reduced,26 ± 2.3,2.33 ± 0.135,0.278,670,650,"16,601 M^–1 cm^–1",0.071 ± 0.00956,–,–,–,–
C[C@@H](N[C@H]1CCN(c2ccc(CC(=O)O)cc2)C1)c1cccc2ccccc12 [evocalcet],–,–,–,–,–,–,–,–,–,< 50,completely abolished,64
